# Measurements from ChEMBL document CHEMBL1131352, “Identification of a series of 1,2,3,4-tetrahydroisoquinolinyl-benzamides with potential anticonvulsant activity” (Bioorg Med Chem Lett, 1998).
# Experiments:
# SB-204269 binding site [1] = experiment: Inhibition of [3H]SB-204269 binding in rat forebrain; assay type: tissue-based
# Rattus norvegicus [2] = species on record: Rattus norvegicus; experiment: Anticonvulsant activity was determined in rat maximal electroshock seizure threshold (MEST) model at 4 hour post dose.; assay type: functional
# Mus musculus [3] = species on record: Mus musculus; experiment: Anticonvulsant activity was determined in mouse maximal electroshock seizure threshold (MEST) model at 1 hour post dose.; assay type: functional
# Rattus norvegicus [4] = species on record: Rattus norvegicus; experiment: Anticonvulsant activity was determined in rat maximal electroshock seizure threshold (MEST) model at 4 hour post dose; assay type: functional
# Mus musculus [5] = species on record: Mus musculus; experiment: Anticonvulsant activity was determined in mouse maximal electroshock seizure threshold (MEST) model at 1 hour post dose; assay type: functional
# SB-204269 binding site [6] = experiment: Binding affinity for [3H]SB-204269 in rat forebrain; assay type: tissue-based
Log Ki (SB-204269 binding site [1]),SMILES,Increase (Mus musculus [3]) [%],also measured
-7.7,COc1cc(C(C)(C)C)ccc1C(=O)Nc1cccc2c1CCN(C)C2,140,Increase (Rattus norvegicus [2]): 330%
-7.9,CCc1cc(OC)c(C(=O)Nc2cccc3c2CCN(C)C3)cc1Cl,100,
-7.6,COc1cc(C)c(Cl)cc1C(=O)Nc1cccc2c1CCN(C)C2,50,
-6.4,COc1cc(C(C)(C)C)ccc1C(=O)Nc1ccc2c(c1)CCN(C)C2,4,
-6.1,COc1cc(N)c(Cl)cc1C(=O)Nc1cccc2c1CN(C)CC2,,
-6.1,COc1cc(Cl)ccc1C(=O)Nc1cccc2c1CCN(C)C2,,
-5.4,COc1c(Cl)cc(Cl)cc1C(=O)Nc1cccc2c1CCN(C)C2,,
-6,CN1CCc2c(cccc2NC(=O)c2ccc(C(C)(C)C)cc2)C1,,
-7.3,CCc1ccc(C(=O)Nc2cccc3c2CCN(C)C3)c(OC)c1,60,
-6.9,COc1cc(C(C)(C)C)c(Cl)cc1C(=O)Nc1cccc2c1CCN(C)C2,,
-7,COc1ccc(Cl)cc1C(=O)Nc1cccc2c1CCN(C)C2,20,
-6.8,COc1cc([N+](=O)[O-])c(Cl)cc1C(=O)Nc1cccc2c1CCN(C)C2,,
-7.2,COc1ccc(Cl)cc1C(=O)Nc1ccc2c(c1)CN(C)CC2,4,
-7.8,COc1cc(N)c(Cl)cc1C(=O)Nc1cccc2c1CCN(C)C2,25,
-7.6,COc1cc(C(C)(C)C)ccc1C(=O)Nc1ccc2c(c1)CN(C)CC2,130,Increase (Rattus norvegicus [2]): 110%
,CC(=O)c1ccc2c(c1)[C@H](NC(=O)c1ccc(F)cc1)[C@@H](O)C(C)(C)O2 [CARABERSAT],,Increase (Rattus norvegicus [4]): 570%; Increase (Mus musculus [5]): 100%; Log Ki (SB-204269 binding site [6]): -7.3

SMILES,Log Ki (SB-204269 binding site [1]),Increase (Mus musculus [3]) [%],also measured
COc1ccccc1C(=O)Nc1cccc2c1CCN(C)C2,-5.8,,
CN1CCc2c(cccc2NC(=O)c2cccc(Cl)c2)C1,< -5,,
